Consider 14 compounds from patent US8815900B2, “Compounds and compositions for reducing lipid levels” (CVI Pharmaceuticals Limited, priority 2007, dated 2014).

Where a name gives a salt, the structure may show the parent alone.

The test system of data set [1] is LDLR ligand uptake activity in HepG2 cells. The data set is described as follows: DiI-LDL uptake (LDLR ligand uptake activity) in HepG2 cells. Further: key: +: slightly increased fluorescent intensity over control; ++: modestly increased fluorescent intensity over control; +++: strongly increased fluorescent intensity over control. It is filed as cell-based, Human. To be noted: 20 hours. As for the experimental part:
HepG2 cells (2×10^5 cells/well) in 24-well culture plates were treated with various compounds at indicated concentrations for 20 hours. The fluorescent 1,1′-dioctadecyl-3,3,3′,3′-tetramethylindocarbocyanin perchlorate (DiI-LDL) (Biomedical Technologies, Stoughton, Mass.) at a concentration of 2 μg/mL was added to cells at the end of treatment. After 4 hours, the medium was removed, cells were washed with cold PBS, and were examined immediately under a fluorescent microscope (Nikon) at 200× amplification. The fluorescent intensity in compound-treated cells was compared to that in untreated control cells. […] In these experiments berberine chloride was used for comparison.

Data set [2] relates to LDLR mRNA expression in HepG2 cells. The data set is described as follows: LDLR mRNA expression in HepG2 cells, semi-quantitative RT-PCR. It is filed as cell-based, Human. The note with it: 8 hours, indicated doses, corrected by GAPDH mRNA (FIG. 3). As for the experimental part:
HepG2 cells obtained from American Tissue Culture Collection (Manassas, Va., USA) were seeded in 6-well culture plates at a density of 0.8×10^6 cells/well cultured in EMEM containing 0.5% FBS and were treated with each purified compound at indicated doses for 8 hours. Total RNA was isolated, and 2 μg per sample was reverse transcribed with random primers using M-MLV (Promega) at 37° C. for 1 hour. PCR was carried out at 94° C. for 30 sec, 60° C. for 30 sec, and 72° C. for 30 sec with initial activation of the enzyme at 94° C. for 1 minute. Thirty cycles were performed for LDLR and GAPDH. PCR was performed using primers HLDLR-up and HLDLR-lo for LDLR and primers HGAPDH-up and HGAPDH-lo for GAPDH. The PCR products were separated on a 1% agarose gel and the band intensity was quantitated. LDLR mRNA levels were corrected by measuring GAPDH mRNA levels.
After the treatment, a portion of cells was harvested for total RNA, and another portion of cells was used for TG measurement. The LDLR mRNA levels were assessed by semi quantitative RT-PCR, and the cellular TG content was determined as described above.

Data set [3] in a line: Stability of compound 69 under cell culture conditions (LC-MS of medium). It is filed as in vitro ADME. To be noted: HepG2 culture medium, 20 μM. As for the experimental part: HepG2 cells were cultured in 6-well cell culture plate in EMEM containing 0.5% FBS overnight. Compound 69+ was added to the culture medium to a final concentration of 20 μM. Medium was collected at 0 (control), 4, 8, or 24 hours after the compound addition.
The collected media were analyzed by LC-MS on a Thermo Fisher Scientific Surveyor HPLC system and LCQ ion trap MS with electrospray ionization source. A 50×2.1 mm Hypersil Gold C18 3 um column was used with a flow rate of 200 uL/min. The method conditions were 98% A (0.1% formic acid in water)/2% B (0.1% formic acid in acetonitrile) then a gradient to 95% B in 10 minutes. The injection volume was 10 uL.

The test system of data set [4] is LDLR mRNA expression in HepG2 cells. The data set is described as follows: LDLR mRNA expression in HepG2 cells, quantitative real-time RT-PCR. The class given is cell-based, Human. The note with it: 24 hours; for Activity on LDLR mRNA expression (Fold of control): dose less than or equal to 10 μM. As for the experimental part: In yet another experiment, HepG2 cells were treated with various compounds for 24 hours at the indicated doses. Total RNA was isolated and 2 μg was used to generate cDNA in a reaction containing random primers and M-MLV at 37° C. for 1 hour in a volume of […] Real-time PCR was performed on the cDNA using MCEP REALPLEX 2 SYSTEM (Eppendorf) and Universal MasterMix (Applied Biosystems). Human LDLR and GAPDH Pre-Developed TaqMan Assay Reagents (Applied Biosystems) were used to assess the levels of mRNA expressions in HepG2. The levels of LDLR mRNA were normalized to that of GAPDH. Each RNA samples was assayed in triplicate. The abundance of LDLR mRNA in untreated cells was defined as 1, and the amounts of LDLR mRNA from compound-treated cells were plotted relative to that value in FIG. 13. The data shown are mean±s.d.
Activities of some compounds of Formulas I, II, III, and IV on LDLR mRNA expression were determined. HepG2 cells were treated with new compounds individually at a dose less than or equal to 10 μM for 24 hours. Total RNA was harvested for quantitative real-time RT-PCR analysis using the method described in Example 16B. […] In these experiments, berberine chloride was included for comparison.
Quantitative real-time RT-PCR was conducted, and triplicate was assayed in each RNA sample. The data are mean value of triplicates.
Total RNA was harvested for quantitative real-time RT-PCR analysis using method described in Examples 16B.
(In general: In qPCR the cycle at which signal appears reflects the starting amount.)

In data set [5] the test system is Wister male rats under a high fat and high cholesterol diet. The data set is described as follows: Lipid lowering and body weight effects of (14R,13S)-CRDL hydrochloride salt in Wister rats. It is filed as in vivo. Here is the method:
Male Wister rats were used as another animal model to examine the in vivo effects of (14R,13S)-CRDL in plasma lipid levels.
In one experiment, 18 Wister male rats under a high fat and high cholesterol diet were divided into 2 groups. One group was given (14R,13S)-CRDL hydrochloride salt orally at a daily dose of 75 mg/kg by an orogastric tube for 4 weeks, and the control group received daily treatment of equal amount of vehicle (0.1 M sodium phosphate, pH 3.5). Serum lipid levels were measured weekly.
At the end of treatment, Rats were sacrificed and blood and sera were collected to measure several critical parameters for liver function and kidney function. […] Kidney function and blood glucose level were not changed by the treatment (FIG. 11E).
The food intake and body weight gains were measured every week during the 4-week treatment period. […] In the first week, the amount of food consumed was decreased in CRDL-treated group. […] The ability of CRDL to activate AMPK signaling pathway to increase energy expenditure and to reduce fat accumulation likely contributes to this weight reducing effect.

For data set [6], the system named is hypercholesterolemic hamsters. Description: In vivo lipid lowering of (14R)-THP in hamsters on high cholesterol diet. On the set-up: species or system Golden Syrian male hamsters. The note with it: 12 mg/kg daily i.p., 34 days. The text has this:
To determine whether the induction of hepatic LDLR expression by corydalis-derived compounds would result in total cholesterol (TC) and LDL-cholesterol (LDL-c) reductions in plasma, hypercholesterolemic hamsters were used as an animal model. In one experiment, 10 Golden Syrian male hamsters under a high cholesterol (HC) diet were divided into 2 groups.

Where [7] appears, read: (14R,13S)-CRDL hydrochloride salt orally 75 mg/kg daily, 4 weeks.
Setting [8] is: end of 4-week treatment, 75 mg/kg daily orally.
Where [9] appears, read: HC diet, compared to untreated control group.

Regarding `COc1cc2c(cc1O)CCN1Cc3c(ccc(OC)c3OC)CC21` (stereo not drawn) [14R-(+)-CRPM, 14R-(+)-corypalmine], the “Activity on DiI-LDL uptake” value in data set [1] (A, compound dose ≦ 10 μM) was “++”. Besides, in data set [2], the “LDLR mRNA expression” value is “potent and dose-dependent effects”.

Consider `COc1ccc2c(c1OS(=O)(=O)c1ccccc1)CN1CCc3cc4c(cc3C1C2)OCO4` (stereo not shown) [Compound 69, 9-benzene-sulfonyloxy-10-methoxy-5,8,13,13a-tetrahydro-6H-[1,3]dioxolo[4,5-g]isoquino[3,2-a] isoquinoline], for which, in data set [3] (up to 24 hours), the “stability under cell culture conditions” value is on record as “fairly stable”. Also, the “Peak Area m/z 466.1” value is on record as 2.38e8 in data set [3] (0 hours (control)), 9.67e7 in data set [3] (4 hours), 9.22e7 in data set [3] (8 hours) and 7.03e7 in data set [3] (24 hours).

Turning to `CN1CCc2cc3c(cc2[C@H]1[C@@H]1O[C@H](O)c2c1ccc1c2OCO1)OCO3` [d-(+)-EGN, (+)-egenine], in data set [1] (A, compound dose ≦ 10 μM), the “Activity on DiI-LDL uptake” value is reported as “+”.

For `CCOC(=O)Oc1c(OC)ccc2c1CN1CCc3cc4c(cc3C1C2)OCO4` (stereo not shown) [Compound 48, 10-methoxy-5,6,7,8,13,13a-hexahydro-2H-1,3-dioxolano[4,5-g]isoquinolino[3,2-a]isoquinolin-9-yl ethoxyformate], the “Activity on LDLR mRNA expression (Fold of control)” value (“Activity … (Fold of control)” below) in data set [4] was 1.45 ± 0.15 Fold of control.

Turning to `COc1cc(NC(=O)Oc2c(OC)ccc3c2CN2CCc4cc5c(cc4C2C3)OCO5)cc(OC)c1` (stereo not shown) [Compound 45, N-(3,5-dimethoxyphenyl) (10-methoxy (5,6,7,8,13,13a-hexahydro-2H-1,3-dioxolano[4,5-g]isoquinolino[3,2-a]isoquinolin-9-yloxy)) carboxamide], the “Activity on DiI-LDL uptake” value in data set [1] (A, compound dose ≦ 10 μM) was “++”. In data set [4], the “Activity … (Fold of control)” value is on record as 2.09 ± 0.11 Fold of control.

As to (+)-corlumidin [(+)-CLMD], in data set [1] (B, compound dose ≦ 40 μM), the “Activity on DiI-LDL uptake” value was “+”. Moreover, the “LDLR mRNA expression” value in data set [2] was “potent and dose-dependent effects”.

In the case of `COc1ccc2c(c1OC(=O)N(C)C)CN1CCc3cc4c(cc3C1C2)OCO4` (stereo not shown) [Compound 43, (10-methoxy (5,6,7,8,13,13a-hexahydro-2H-1,3-dioxolano[4,5-g]isoquinolino[3,2-a]isoquinolin-9-yloxy))-N,N-dimethylcarboxamide], the “Activity on DiI-LDL uptake” value in data set [1] (A, compound dose ≦ 10 μM) was “++”. Moreover, the “Activity … (Fold of control)” value in data set [4] was 1.95 ± 0.18 Fold of control.

Take `COc1ccc2c(c1OC(=O)Nc1cccc(C)c1)CN1CCc3cc4c(cc3C1C2)OCO4` (stereo not shown) [Compound 46, (10-methoxy (5,6,7,8,13,13a-hexahydro-2H-1,3-dioxolano[4,5-g]isoquinolino[3,2-a]isoquinolin-9-yloxy))-N-(3-methylphenyl) carboxamide]: in data set [1] (A, compound dose ≦ 10 μM), the “Activity on DiI-LDL uptake” value was “++”. Besides, in data set [4], the “Activity … (Fold of control)” value is 1.80 ± 0.16 Fold of control.

For `COc1cc2c(cc1OC)[C@H]1[C@@H](C)c3ccc(OC)c(OC)c3CN1CC2` [Compound 6, (13S,13aR)-2,3,9,10-tetramethoxy-13-methyl-5,6,7,8,13,13a-hexahydroiso-quinolino[2,1-b]isoquinoline hydrochloride], in data set [5] (setting [7]), the “LDL-c level, % of control” value was determined as 25.6%; the “LDL-c level, % of day 0” value amounted to 22.4%; the “TC, % compared to the control group” value amounted to 33.8%; the “TC, % of the pretreatment level” value is on record as 33.0%. In data set [5] (setting [7]), the “TG level, % of the control” value amounted to 29% and the “TG level, % of the pretreatment level (day 0)” value came out at 27%. In data set [5] (setting [8]), the blood glucose level result is “not changed” and the “kidney function (BUN, CREA)” value was “not changed”.

For the compound `COc1ccc2c(c1OC(=O)Nc1ccc(OC(F)(F)F)cc1)CN1CCc3cc4c(cc3C1C2)OCO4` (stereo not shown) [Compound 44, (10-methoxy (5,6,7,8,13,13a-hexahydro-2H-1,3-dioxolano[4,5-g]isoquinolino[3,2-a]isoquinolin-9-yloxy))-N-[4-(trifluoromethoxy)phenyl]car-boxamide], in data set [1] (A, compound dose ≦ 10 μM), the “Activity on DiI-LDL uptake” value is reported as “++”. The “Activity … (Fold of control)” value in data set [4] is reported as 2.20 ± 0.06 Fold of control.

For the compound `COc1ccc2c(c1O)CN1CCc3cc4c(cc3C1C2)OCO4` (stereo not shown) [Compound 34, 10-methoxy-5,6,7,8,13,13a-hexahydro-2H-1,3-dioxolano[4,5-g]isoquinolino[3,2-a]isoquinolin-9-ol], the “Activity on DiI-LDL uptake” value in data set [1] (A, compound dose ≦ 10 μM) is given as “++”. For the same compound, the “Activity … (Fold of control)” value in data set [4] was 1.76 ± 0.17 Fold of control.

With `COc1ccc2c(c1OC(=O)Nc1ccccc1)CN1CCc3cc4c(cc3C1C2)OCO4` (stereo not shown) [Compound 61, (10-methoxy (5,6,7,8,13,13a-hexahydro-2H-1,3-dioxolano[4,5-g]isoquinolino[3,2-a]isoquinolin-9-yloxy))-N-benzamide], the “Activity … (Fold of control)” value in data set [4] is 1.33 ± 0.53 Fold of control.

For the compound `COc1cc2c(cc1OC)[C@H]1Cc3ccc(OC)c(OC)c3CN1CC2` [14R-(+)-THP, 14R-(+)-tetrahydropalmatine], the “Activity on DiI-LDL uptake” value in data set [1] (B, compound dose ≦ 40 μM) is recorded as “++”. Also, in data set [4] (added to low dose simvastatin or fluvastatin (FIG. 17)), the “LDLR mRNA expression, combined with statins” value is reported as “further improved the stimulatory effects of statins”. For the same compound, the “adverse effects during the treatment period” value in data set [6] is listed as “No adverse effects were observed”. Moreover, in data set [6] (setting [9]), the “reduction of plasma TC” value was 31.6%, the “reduction of plasma TG” value is 35.93% and the “reduction of plasma non-HDL-c” value is reported as 35.95%. Moreover, the “gains of body weight during the treatment period” value in data set [6] (vs control group) is recorded as “very similar”. In data set [2], the “LDLR mRNA expression” value is “potent and dose-dependent effects”.

Regarding `COc1ccc2c(c1OC(=O)NC(C)C)CN1CCc3cc4c(cc3C1C2)OCO4` (stereo not shown) [Compound 41, (10-methoxy (5,6,7,8,13,13a-hexahydro-2H-1,3-dioxolano[4,5-g]isoquinolino[3,2-a]isoquinolin-9-yloxy))-N-(methylethyl) carboxamide], the “Activity on DiI-LDL uptake” value in data set [1] (A, compound dose ≦ 10 μM) was “++”. Also, the “Activity … (Fold of control)” value in data set [4] is recorded as 1.60 ± 0.03 Fold of control.
